Test results: patent US12498382B2, “Biomarkers for vitiligo” (INCYTE CORPORATION, priority 2019, dated 2025)

Test system: HaCaT cells
Experiment: Normalized expression of target genes in HaCaT cells stimulated with TNFα and IFNγ in presence/absence of JAK inhibitors (QuantiGene Plex)
Format: cell-based, human
Conditions: for MFI, normalized expression of IYK2: gene IYK2; for MFI, normalized expression of IYK2 / MFI, normalized expression of TNF / MFI, normalized expression of VEGFA: HaCaT, normalized to HPRT1, mean ± standard error; for MFI, normalized expression of TNF: gene TNF; for MFI, normalized expression of VEGFA: gene VEGFA
Method: Transformed human keratinocyte (HaCaT) cells were purchased from AddexBio (Catalog #T0020001) and cultured as outlined in Example 5. […] After 48 hours, cell culture media was removed from 24 well plates and replaced with 250 uL of media containing serial diluted drug, then incubated for 15 minutes at 37° C./5% CO2. After drug incubation, 250 uL of combinatory stimulation containing Recombinant Human Interferon gamma (R&D Systems, Catalog #285-IF-100) and Recombinant Human Tumor Necrosis Factor alpha (R&D Systems, Catalog #210-TA-020) was added to plates. The final concentration of Recombinant Human Interferon gamma and Recombinant Human Tumor Necrosis Factor alpha was 25 ng/mL of each cytokine. Cytokine stimulation added to wells containing drug brought the final concentrations for each drug treatment to 25 nM, 50 nM, 100 nM, and 200 nM. Treated plates were mixed by gentle agitation for 30 seconds then incubated for 24 hours at 37° C./5% CO2. At the end of the 24 hour incubation media was immediately removed from each plate.
RNA was isolated from HaCaT cells using the QuantiGene Plex Assay reagents and protocols (Affymetrix, Catalog #QGP-232-M18042302) according to the manufacturer's guidelines. Cells were washed with 1×DPBS then lysed by incubation with provided QuantiGene lysis buffer for 30 minutes at 50-55° C. Cell lysates were incubated for 18-24 hours at 55° C. with capture beads and probe set designed to specifically hybridize to mRNA from targets of interest. Genes included housekeeping genes (e.g., HPRT1 and GAPDH) used for the normalization of the results. After the 18-24 hour incubation signal was amplified utilizing branched DNA methodologies, according to the manufacturer's procedures (Affymetrix, Catalog #QGP-232-M18042302). After hybridization and wash steps assay plate was read on the Luminex 200 and data were expressed as Net Median Fluorescence Intensity. Data was then normalized to the Net Median Fluorescence Intensity of the housekeeping gene HPRT1 (Table 14).

[1] = TNFα+IFNγ 25 ng/mL, Drug Conc 25 nM
[2] = TNFα+IFNγ 25 ng/mL, Drug Conc 50 nM
[3] = TNFα+IFNγ 25 ng/mL, Drug Conc 100 nM
[4] = TNFα+IFNγ 25 ng/mL, Drug Conc 200 nM
[5] = TNFα (25 ng/mL) and IFNγ (25 ng/mL), 1st (lowest, likely 25 nM) of 4 drug conc
[6] = TNFα (25 ng/mL) and IFNγ (25 ng/mL), 2nd (likely 50 nM) of 4 drug conc
[7] = TNFα (25 ng/mL) and IFNγ (25 ng/mL), 3rd (likely 100 nM) of 4 drug conc
[8] = TNFα (25 ng/mL) and IFNγ (25 ng/mL), 4th (highest, likely 200 nM) of 4 drug conc
[9] = drug without TNFα/IFNγ stimulation
[10] = no stimulation, Drug Conc 200 nM

Compound: C[C@@H](O)c1nc2cnc3ccsc3c2n1[C@H]1CC[C@H](CC#N)OC1 [Cpd D, ((2R,5S)-5-{2-[(1R)-1-hydroxyethyl]-1H-imidazo[4,5-d]thieno[3,2-b]pyridin-1-yl}tetrahydro-2H-pyran-2-yl)acetonitrile]
- AREG normalized expression MFI [1]: 725.6 ± 33.78
- CCL17 normalized expression MFI [1]: 3.08 ± 0.64
- CCL18 normalized expression MFI [1]: 1.89 ± 0.28
- FLG normalized expression MFI [1]: 71.27 ± 11.09
- IL6 normalized expression MFI [1]: 132.28 ± 7.41
- IL8 normalized expression MFI [1]: 398.64 ± 22.41
- IL17A normalized expression MFI [1]: 1.05 ± 0.18
- IL22 normalized expression MFI [1]: 1.39 ± 0.23
- IL23A normalized expression MFI [1]: 48.01 ± 2.69
- IL31 normalized expression MFI [1]: 1.99 ± 0.4
- ILIA normalized expression MFI [1]: 1269.66 ± 50.59
- JAK1 normalized expression MFI [1]: 200.4 ± 9.84
- JAK2 normalized expression MFI [1]: 108.89 ± 3.25
- JAK3 normalized expression MFI [1]: 0.97 ± 0.18
- LOR normalized expression MFI [1]: 23 ± 9.47
- S100A7 normalized expression MFI [1]: 5.37 ± 1.3
- S100A12 normalized expression MFI [1]: 1.31 ± 0.18
- SERPINB3 normalized expression MFI [1]: 2 ± 0.3
- SERPINB4 normalized expression MFI [1]: 2.78 ± 0.31
- STAT1 normalized expression MFI [1]: 3156.82 ± 244.78
- STAT3 normalized expression MFI [1]: 1572.76 ± 65.5
- STAT4 normalized expression MFI [1]: 5.4 ± 0.45
- STAT5A normalized expression MFI [1]: 20.12 ± 1.29
- STAT5B normalized expression MFI [1]: 38.56 ± 2.02
- STAT6 normalized expression MFI [1]: 1042.76 ± 29.23
- AREG normalized expression MFI [2]: 778.42 ± 44.28
- CCL17 normalized expression MFI [2]: 2.71 ± 0.41
- CCL18 normalized expression MFI [2]: 2.16 ± 0.22
- FLG normalized expression MFI [2]: 78.47 ± 10.63
- IL6 normalized expression MFI [2]: 137.61 ± 5.87
- IL8 normalized expression MFI [2]: 417.47 ± 21.97
- IL17A normalized expression MFI [2]: 1.06 ± 0.15
- IL22 normalized expression MFI [2]: 1.4 ± 0.21
- IL23A normalized expression MFI [2]: 56.64 ± 3.44
- IL31 normalized expression MFI [2]: 1.82 ± 0.44
- ILIA normalized expression MFI [2]: 1336.95 ± 50.97
- JAK1 normalized expression MFI [2]: 210.52 ± 7.73
- JAK2 normalized expression MFI [2]: 106.83 ± 5.94
- JAK3 normalized expression MFI [2]: 0.99 ± 0.2
- LOR normalized expression MFI [2]: 28.28 ± 10.86
- S100A7 normalized expression MFI [2]: 5.94 ± 1.23
- S100A12 normalized expression MFI [2]: 1.11 ± 0.18
- SERPINB3 normalized expression MFI [2]: 2.54 ± 0.33
- SERPINB4 normalized expression MFI [2]: 3.2 ± 0.53
- STAT1 normalized expression MFI [2]: 3009.6 ± 169.64
- STAT3 normalized expression MFI [2]: 1543.4 ± 58.65
- STAT4 normalized expression MFI [2]: 6.1 ± 0.36
- STAT5A normalized expression MFI [2]: 22.69 ± 1.71
- STAT5B normalized expression MFI [2]: 40.76 ± 1.91
- STAT6 normalized expression MFI [2]: 1046.46 ± 29.12
- AREG normalized expression MFI [3]: 703.3 ± 37.3
- CCL17 normalized expression MFI [3]: 2.86 ± 0.3
- CCL18 normalized expression MFI [3]: 1.74 ± 0.26
- FLG normalized expression MFI [3]: 69.64 ± 9.33
- IL6 normalized expression MFI [3]: 122.46 ± 5.35
- IL8 normalized expression MFI [3]: 410.72 ± 29.84
- IL17A normalized expression MFI [3]: 0.84 ± 0.16
- IL22 normalized expression MFI [3]: 1.24 ± 0.22
- IL23A normalized expression MFI [3]: 51.42 ± 2.55
- IL31 normalized expression MFI [3]: 1.61 ± 0.35
- ILIA normalized expression MFI [3]: 1244.96 ± 41.03
- JAK1 normalized expression MFI [3]: 200.25 ± 8.15
- JAK2 normalized expression MFI [3]: 102.64 ± 3.52
- JAK3 normalized expression MFI [3]: 1.01 ± 0.17
- LOR normalized expression MFI [3]: 21.29 ± 9.59
- S100A7 normalized expression MFI [3]: 4.6 ± 1.68
- S100A12 normalized expression MFI [3]: 1.12 ± 0.15
- SERPINB3 normalized expression MFI [3]: 2 ± 0.26
- SERPINB4 normalized expression MFI [3]: 2.64 ± 0.3
- STAT1 normalized expression MFI [3]: 2991.9 ± 200.56
- STAT3 normalized expression MFI [3]: 1549.17 ± 89.41
- STAT4 normalized expression MFI [3]: 5.83 ± 0.34
- STAT5A normalized expression MFI [3]: 19.54 ± 1.34
- STAT5B normalized expression MFI [3]: 40.91 ± 2.17
- STAT6 normalized expression MFI [3]: 985.1 ± 39.79
- AREG normalized expression MFI [4]: 713.33 ± 37.27
- CCL17 normalized expression MFI [4]: 2.34 ± 0.4
- CCL18 normalized expression MFI [4]: 1.57 ± 0.3
- FLG normalized expression MFI [4]: 72.06 ± 11.85
- IL6 normalized expression MFI [4]: 119.49 ± 4.42
- IL8 normalized expression MFI [4]: 367.56 ± 17.81
- IL17A normalized expression MFI [4]: 0.82 ± 0.13
- IL22 normalized expression MFI [4]: 1.28 ± 0.2
- IL23A normalized expression MFI [4]: 53.83 ± 3.54
- IL31 normalized expression MFI [4]: 1.51 ± 0.36
- ILIA normalized expression MFI [4]: 1163.14 ± 26.71
- JAK1 normalized expression MFI [4]: 190.53 ± 7.68
- JAK2 normalized expression MFI [4]: 92.21 ± 2.9
- JAK3 normalized expression MFI [4]: 0.86 ± 0.16
- LOR normalized expression MFI [4]: 17 ± 7.28
- S100A7 normalized expression MFI [4]: 3.77 ± 0.91
- S100A12 normalized expression MFI [4]: 0.91 ± 0.14
- SERPINB3 normalized expression MFI [4]: 1.69 ± 0.29
- SERPINB4 normalized expression MFI [4]: 2.33 ± 0.38
- STAT1 normalized expression MFI [4]: 3154.11 ± 139.56
- STAT3 normalized expression MFI [4]: 1570.19 ± 51.51
- STAT4 normalized expression MFI [4]: 5.42 ± 0.52
- STAT5A normalized expression MFI [4]: 18.33 ± 1.83
- STAT5B normalized expression MFI [4]: 36.62 ± 1.7
- STAT6 normalized expression MFI [4]: 1013.25 ± 17.15
- MFI, normalized expression of IYK2 [5]: 283.93 ± 8.16
- MFI, normalized expression of IYK2 [6]: 307.36 ± 14.87
- MFI, normalized expression of IYK2 [7]: 280.63 ± 10.46
- MFI, normalized expression of IYK2 [8]: 283.28 ± 10.88
- MFI, normalized expression of IYK2 [9]: 217.28 ± 10.09
- MFI, normalized expression of TNF [5]: 26.07 ± 1.13
- MFI, normalized expression of TNF [6]: 29.31 ± 2.52
- MFI, normalized expression of TNF [7]: 27.59 ± 1.64
- MFI, normalized expression of TNF [8]: 27.63 ± 2.3
- MFI, normalized expression of TNF [9]: 1.59 ± 0.22
- MFI, normalized expression of VEGFA [5]: 600.98 ± 13.99
- MFI, normalized expression of VEGFA [6]: 582.24 ± 17.89
- MFI, normalized expression of VEGFA [7]: 572.2 ± 19.67
- MFI, normalized expression of VEGFA [8]: 541.01 ± 9.94
- MFI, normalized expression of VEGFA [9]: 210.34 ± 9.72
- AREG normalized expression MFI [10]: 251.8 ± 23.68
- CCL17 normalized expression MFI [10]: 0.94 ± 0.14
- CCL18 normalized expression MFI [10]: 0.95 ± 0.19
- FLG normalized expression MFI [10]: 219.44 ± 34.83
- IL6 normalized expression MFI [10]: 5.15 ± 0.31
- IL8 normalized expression MFI [10]: 58.9 ± 5.89
- IL17A normalized expression MFI [10]: 0.43 ± 0.08
- IL22 normalized expression MFI [10]: 0.62 ± 0.11
- IL23A normalized expression MFI [10]: 9.55 ± 1.15
- IL31 normalized expression MFI [10]: 0.91 ± 0.23
- ILIA normalized expression MFI [10]: 84.51 ± 7.04
- JAK1 normalized expression MFI [10]: 171.53 ± 9.49
- JAK2 normalized expression MFI [10]: 25.25 ± 1.04
- JAK3 normalized expression MFI [10]: 0.53 ± 0.09
- LOR normalized expression MFI [10]: 12.79 ± 4.84
- S100A7 normalized expression MFI [10]: 3.69 ± 0.84
- S100A12 normalized expression MFI [10]: 0.61 ± 0.11
- SERPINB3 normalized expression MFI [10]: 1.5 ± 0.27
- SERPINB4 normalized expression MFI [10]: 1.84 ± 0.42
- STAT1 normalized expression MFI [10]: 549.79 ± 12.18
- STAT3 normalized expression MFI [10]: 750.9 ± 27.68
- STAT4 normalized expression MFI [10]: 3.75 ± 0.33
- STAT5A normalized expression MFI [10]: 1.12 ± 0.19
- STAT5B normalized expression MFI [10]: 54.64 ± 4.79
- STAT6 normalized expression MFI [10]: 762.04 ± 9.44
